Source: US20260216198A1, “GPR35 MODULATORS” (ThirtyFiveBio Limited, priority 2023, published 2026)

Target: T1, GPR35 (Homo sapiens, UniProt Q9HC97)
T1 construct: expressed in transfected cells; host or cells: CHO-K1 cells co-expressing mitochondrial aequorin and Gα16
Assay: cellular GPR35 phospho-ERK HTRF assay (inhibition of lodoxamide-induced phospho-ERK signal)
Type: cell-based
Settings: GPR35-CHO-K1-mt aequorin-Gα16 cell line; agonist lodoxamide at EC80; read-out: Activity Group (IC50, inhibition of GPR35 agonist-induced phospho-ERK signal)
Source text: (§1) The functional GPR35 assay as described in the accompanying examples measures the ability of GPR35 modulators to inhibit a GPR35 agonist-induced phospho-ERK signal. This is expressed as the concentration of modulator required to reduce the phospho-ERK signal by 50 percent, i.e. the IC50; the signal window being defined as the difference between agonist plus modulator vehicle (no modulator) and agonist vehicle (no agonist) controls.
as §1, with “functional” for “functional GPR35”, “assay” for “assay as”, “described” for “described in the accompanying examples”
This assay is a cellular GPR35 phospho-ERK homogeneous time resolved fluorescence (HTRF) assay using the GPR35-CHO-K1-mt aequorin-Gα16 cell line. Upon activation of GPR35 with the agonist lodoxamide at EC80 concentration, ERK 1/2 is phosphorylated, and after lysis of the cell membrane, phospho-ERK1/2 (Thr202/Tyr204) is detected in a sandwich assay using two different specific antibodies, one labelled with Eu^3+-cryptate (donor) and the second with d2 (acceptor). When the dyes are in proximity, the excitation of the donor with a light source (laser or flash lamp) triggers a Fluorescence Resonance Energy Transfer (FRET) towards the acceptor, resulting in specific acceptor fluorescence (at 665 nm). The specific signal is directly proportional to the amount of phospho-ERK1/2 (Thr202/Tyr204) in the sample. Compounds that interfere with the levels of phospho-ERK1/2 (Thr202/Tyr204) will result in a low HTRF signal.

T1 sequence (Q9HC97 whole entry): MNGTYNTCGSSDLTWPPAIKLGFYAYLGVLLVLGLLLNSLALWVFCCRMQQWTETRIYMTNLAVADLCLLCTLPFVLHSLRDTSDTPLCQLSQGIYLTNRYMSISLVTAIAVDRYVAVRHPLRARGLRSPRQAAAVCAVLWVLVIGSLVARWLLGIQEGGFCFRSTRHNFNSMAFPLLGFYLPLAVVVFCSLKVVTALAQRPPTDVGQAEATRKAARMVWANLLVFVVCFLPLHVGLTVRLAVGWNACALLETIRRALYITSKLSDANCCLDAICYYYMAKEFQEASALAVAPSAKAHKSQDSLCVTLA

Row | SMILES | IC50
1 | O=C(Nc1ccc(OCCc2ccccc2)cc1)c1cccc(-c2ccc(O)c(C(=O)O)c2)c1 [Example 1, 4-Hydroxy-3′-((4-phenethoxyphenyl)carbamoyl)-[1,1′-biphenyl]-3-carboxylic acid] | < 1000 nM
2 | O=C(Nc1ccc(OCCc2ccccc2)cc1)c1cccc(-c2cnc(C3CC3)c(C(=O)O)c2)c1 [Example 2, 2-Cyclopropyl-5-(3-((4-phenethoxyphenyl)carbamoyl)phenyl)nicotinic acid] | < 1000 nM
3 | O=C(Nc1ccc(OCCc2ccccc2)cc1)c1cccc(-c2c[nH]c(=O)c(C(=O)O)c2)c1 [Example 3, 2-oxo-5-(3-((4-Phenethoxyphenyl)carbamoyl)phenyl)-1,2-dihydropyridine-3-carboxylic acid] | < 1000 nM
4 | O=C(Nc1ccc(OCCc2ccccc2)cc1)c1cccc(-c2cnc(C(F)(F)F)c(C(=O)O)c2)c1 [Example 4, 5-(3-((4-Phenethoxyphenyl)carbamoyl)phenyl)-2-(trifluoromethyl)nicotinic acid] | < 1000 nM
5 | O=C(O)c1cncc(-c2cccc(C(=O)Nc3ccc(OCCc4ccccc4)cc3)c2)c1 [Example 5, 5-(3-((4-Phenethoxyphenyl)carbamoyl)phenyl)nicotinic acid] | < 1000 nM
6 | O=C(O)Cc1cncc(-c2cccc(C(=O)Nc3ccc(OCCc4ccccc4)cc3)c2)c1 [Example 6, 2-(5-(3-((4-Phenethoxyphenyl)carbamoyl)phenyl)pyridin-3-yl)acetic acid] | < 1000 nM
7 | O=C(Nc1ccc(OCCc2ccccc2)cc1)c1cccc(-c2ccnc(C(=O)O)n2)c1 [Example 7, 4-(3-((4-Phenethoxyphenyl)carbamoyl)phenyl)pyrimidine-2-carboxylic acid] | < 1000 nM
8 | Cc1ccc(-c2cccc(C(=O)Nc3ccc(OCCc4ccccc4)cc3)c2)nc1C(=O)O [Example 8, 3-Methyl-6-(3-((4-phenethoxyphenyl)carbamoyl)phenyl)picolinic acid] | < 1000 nM
9 | Nc1ncc(-c2cccc(C(=O)Nc3ccc(OCCc4ccccc4)cc3)c2)nc1C(=O)O [Example 9, 3-Amino-6-(3-((4-phenethoxyphenyl)carbamoyl)phenyl)pyrazine-2-carboxylic acid] | < 1000 nM
10 | Cc1ncc(-c2cccc(C(=O)Nc3ccc(OCCc4ccccc4)cc3)c2)nc1C(=O)O [Example 10, 3-Methyl-6-(3-((4-phenethoxyphenyl)carbamoyl)phenyl)pyrazine-2-carboxylic acid] | < 1000 nM
11 | O=C(Nc1ccc(OCCc2ccccc2)cc1)c1cccc(-c2cnc(F)c(C(=O)O)c2)c1 [Example 11, 2-Fluoro-5-(3-((4-phenethoxyphenyl)carbamoyl)phenyl)nicotinic acid] | < 1000 nM
12 | Nc1ncc(-c2cccc(C(=O)Nc3ccc(OCCc4ccccc4)cc3)c2)cc1C(=O)O [Example 12, 2-Amino-5-(3-((4-phenethoxyphenyl)carbamoyl)phenyl)nicotinic acid] | < 1000 nM
13 | O=C(O)c1ccnc(-c2cccc(C(=O)Nc3ccc(OCCc4ccccc4)cc3)c2)c1 [Example 13, 2-(3-((4-Phenethoxyphenyl)carbamoyl)phenyl)isonicotinic acid] | < 1000 nM
14 | O=C(Nc1ccc(OCCc2ccccc2)cc1)c1cccc(-c2cncc(C(=O)O)n2)c1 [Example 14, 6-(3-((4-Phenethoxyphenyl)carbamoyl)phenyl)pyrazine-2-carboxylic acid] | < 1000 nM
15 | Cc1ncc(-c2cccc(C(=O)Nc3ccc(OCCc4ccccc4)cc3)c2)cc1C(=O)O [Example 15, 2-Methyl-5-(3-((4-phenethoxyphenyl)carbamoyl)phenyl)nicotinic acid] | < 1000 nM
16 | Nc1ccc(-c2cccc(C(=O)Nc3ccc(OCCc4ccccc4)cc3)c2)cc1C(=O)O [Example 16, 4-amino-3′-((4-phenethoxyphenyl)carbamoyl)-[1,1′-biphenyl]-3-carboxylic acid] | < 1000 nM
17 | COc1ncc(-c2cccc(C(=O)Nc3ccc(OCCc4ccccc4)cc3)c2)cc1C(=O)O [Example 17, 2-Methoxy-5-(3-((4-phenethoxyphenyl)carbamoyl)phenyl)nicotinic acid] | < 1000 nM
18 | O=C(Nc1ccc(OCCc2ccccc2)cc1)c1cccc(-c2cccc(C(=O)O)n2)c1 [Example 18, 6-(3-((4-Phenethoxyphenyl)carbamoyl)phenyl)picolinic acid] | < 1000 nM
19 | O=C(Nc1ccc(OCCc2ccccc2)cc1)c1cccc(-c2cnc(Cl)c(C(=O)O)c2)c1 [Example 19, 2-Chloro-5-(3-((4-phenethoxyphenyl)carbamoyl)phenyl)nicotinic acid] | < 1000 nM

Row | SMILES | IC50
20 | O=C(O)c1ccc(-c2cccc(C(=O)Nc3ccc(OCCc4ccccc4)cc3)c2)nc1 [Example 20, 6-(3-((4-Phenethoxyphenyl)carbamoyl)phenyl)nicotinic acid] | < 1000 nM
21 | O=C(Nc1ccc(OCCc2ccccc2)cc1)c1cccc(-c2ccnc(C(=O)O)c2)c1 [Example 21, 4-(3-((4-Phenethoxyphenyl)carbamoyl)phenyl)picolinic acid] | 1000 to 10000 nM
22 | O=C(Nc1ccc(OCCc2ccccc2)cc1)c1cccc(-c2nccc(C(=O)O)n2)c1 [Example 22, 2-(3-((4-Phenethoxyphenyl)carbamoyl)phenyl)pyrimidine-4-carboxylic acid] | < 1000 nM
23 | O=C(Nc1ccc(OCCc2ccccc2)cc1)c1cccc(-c2ccc(C(=O)O)nc2)c1 [Example 23, 5-(3-((4-Phenethoxyphenyl)carbamoyl)phenyl)picolinic acid] | 1000 to 10000 nM
24 | Cc1ccc(C(=O)O)nc1-c1cccc(C(=O)Nc2ccc(OCCc3ccccc3)cc2)c1 [Example 24, 5-Methyl-6-(3-((4-phenethoxyphenyl)carbamoyl)phenyl)picolinic acid] | < 1000 nM
25 | Cc1ncc(C(=O)O)cc1-c1cccc(C(=O)Nc2ccc(OCCc3ccccc3)cc2)c1 [Example 25, 6-Methyl-5-(3-((4-phenethoxyphenyl)carbamoyl)phenyl)nicotinic acid] | 1000 to 10000 nM
26 | O=C(Nc1ccc(OCCc2ccccc2)cc1)c1cccc(-c2ccncc2C(=O)O)c1 [Example 26, 4-(3-((4-Phenethoxyphenyl)carbamoyl)phenyl)nicotinic acid] | 1000 to 10000 nM
27 | Cc1c(C(=O)O)cncc1-c1cccc(C(=O)Nc2ccc(OCCc3ccccc3)cc2)c1 [Example 27, 4-Methyl-5-(3-((4-phenethoxyphenyl)carbamoyl)phenyl)nicotinic acid] | 1000 to 10000 nM
28 | O=C(Nc1ccc(OCCc2ccccc2)cc1)c1cccc(-c2cnnc(C(=O)O)c2)c1 [Example 28, 5-(3-((4-Phenethoxyphenyl)carbamoyl)phenyl)pyridazine-3-carboxylic acid] | < 1000 nM
29 | NC(=O)c1ncc(-c2cccc(C(=O)Nc3ccc(OCCc4ccccc4)cc3)c2)cc1C(=O)O [Example 29, 2-Carbamoyl-5-(3-((4-phenethoxyphenyl)carbamoyl)phenyl)nicotinic acid] | 1000 to 10000 nM
30 | CS(=O)(=O)Nc1ncc(-c2cccc(C(=O)Nc3ccc(OCCc4ccccc4)cc3)c2)cc1C(=O)O [Example 30, 2-(Methylsulfonamido)-5-(3-((4-phenethoxyphenyl)carbamoyl)phenyl)nicotinic acid] | < 1000 nM
31 | Cn1cc(-c2cccc(C(=O)Nc3ccc(OCCc4ccccc4)cc3)c2)cc(C(=O)O)c1=O [Example 31, 1-Methyl-2-oxo-5-(3-((4-phenethoxyphenyl)carbamoyl)phenyl)-1,2-dihydropyridine-3-carboxylic acid] | 1000 to 10000 nM
32 | O=C(Nc1ccc(OCCc2ccccc2)cc1)c1cccc(-c2cnc(CN3CCOCC3)c(C(=O)O)c2)c1 [Example 32, 2-(Morpholinomethyl)-5-(3-((4-phenethoxyphenyl)carbamoyl)phenyl)nicotinic acid] | 1000 to 10000 nM
33 | O=C(Nc1ccc(OCCc2ccccc2)cc1)c1cccc(-c2cnc(N3CCOCC3)c(C(=O)O)c2)c1 [Example 33, 2-Morpholino-5-(3-((4-phenethoxyphenyl)carbamoyl)phenyl)nicotinic acid] | < 1000 nM
34 | CNc1ncc(-c2cccc(C(=O)Nc3ccc(OCCc4ccccc4)cc3)c2)cc1C(=O)O [Example 34, 2-(Methylamino)-5-(3-((4-phenethoxyphenyl)carbamoyl)phenyl)nicotinic acid] | < 1000 nM
35 | CN(C)c1ncc(-c2cccc(C(=O)Nc3ccc(OCCc4ccccc4)cc3)c2)cc1C(=O)O [Example 35, 2-(Dimethylamino)-5-(3-((4-phenethoxyphenyl)carbamoyl)phenyl)nicotinic acid] | < 1000 nM
36 | O=C(Nc1ccc(OCCc2ccccc2)cc1)c1cccc(-c2cnc(NCCO)c(C(=O)O)c2)c1 [Example 36, 2-((2-Hydroxyethyl)amino)-5-(3-((4-phenethoxyphenyl)carbamoyl)phenyl)nicotinic acid] | < 1000 nM
37 | COCCNc1ncc(-c2cccc(C(=O)Nc3ccc(OCCc4ccccc4)cc3)c2)cc1C(=O)O [Example 37, 2-((2-Methoxyethyl)amino)-5-(3-((4-phenethoxyphenyl)carbamoyl)phenyl)nicotinic acid] | < 1000 nM
